Earlier results in patent US10172940B2 (priority 2009, dated 2019).

Tested on: canine visceral leishmaniasis (CVL)

## Meglumine antimoniate
15 dogs treated
  treated dogs from which parasites were recovered: 79%
dog, in vivo
  dogs PCR positive after treatment: 5/6

## N=C(N)c1ccc(OCCCCCOc2ccc(C(=N)N)cc2)cc1 [pentamidine]
dog, in vivo
  clinical recovery / clinical improvement: improve clinically
  recurrence of the disease: show recurrence of the disease

## Oc1ncnc2[nH]ncc12 [allopurinol]
20 months of treatment
  parasitological cure and PCR result: without parasitological cure or negative results for PCR
dog, in vivo
  clinical recovery / clinical improvement: 9/10
  dogs remaining positive for parasites (culture, PCR of lymph node, parasitological aspect): 8 dogs

## NC[C@@H]1O[C@H](O[C@H]2[C@@H](O)[C@H](O[C@@H]3[C@@H](O)[C@H](N)C[C@H](N)[C@H]3O[C@H]3O[C@H](CO)[C@@H](O)[C@H](O)[C@H]3N)O[C@@H]2CO)[C@H](N)[C@@H](O)[C@@H]1O [aminosidine]
dog, in vivo
  dogs remaining positive for parasites (culture, PCR of lymph node, parasitological aspect): 4/4
Higher doses
  dogs with absence of symptoms and parasites for 4 years: 3/12
  dogs with relapse: 9
